{"source": "PubChem BioAssay AID1963443", "about": "(Molecular Pharmacology Branch, DTP, NCI, 2024)", "tested_on": "MDA-MB-231 complex spheroids, growth inhibition", "test": "Anticancer human tumor MDA-MB-231 cell line growth inhibition [Asc];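 further: spheroids exposed to compounds for 7 days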", "conditions": "for viability, T/C: stronger effect = lower value", "in_short": "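Stromal components (HUVEC and hMSC) are co-assembled with the cancer cells into multicellular spheroids. Drugs are then added singly or paired, at concentrations falling by half-log increments from a clinically achievable maximum, capped at 10 microM without known Cmax.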", "note": "“And” between values parts separate entries of the source, which are not always exact repeats. Identical values can stand only once.", "data": [{"smiles": "C=CC(=O)N1CCN(c2nc(=O)n(-c3c(C)ccnc3C(C)C)c3nc(-c4c(O)cccc4F)c(F)cc23)C(C)C1", "note": "(configuration not stated) + CCN1C(C(=O)NC23CCC(C(=O)O)(CC2)CC3)C(c2cccc(Cl)c2F)C2(C(=O)Nc3cc(Cl)ccc32)C12CCCCC2", "values": [{"measurement": "IC50", "setting": "curve of first compound, second compound 0.03 µM", "result": "> 10000", "unit": "nM"}, {"measurement": "IC50", "setting": "curve of first compound, second compound 0.0949 µM", "result": "> 10000", "unit": "nM"}, {"measurement": "IC50", "setting": "curve of first compound, second compound 0.3 µM", "result": "> 10000", "unit": "nM"}, {"measurement": "IC50", "setting": "curve of first compound, second compound 0.949 µM", "result": "> 10000", "unit": "nM"}, {"measurement": "IC50", "setting": "curve of first compound, second compound 3 µM", "result": "> 10000", "unit": "nM"}, {"measurement": "viability, T/C", "setting": "second compound 0.03 µM, first compound 0.0316 µM", "result": 97.4, "unit": "%"}, {"measurement": "viability, T/C", "setting": "second compound 0.03 µM, first compound 0.1 µM", "result": 97.9, "unit": "%"}, {"measurement": "viability, T/C", "setting": "second compound 0.03 µM, first compound 0.316 µM", "result": 103, "unit": "%"}, {"measurement": "viability, T/C", "setting": "second compound 0.03 µM, first compound 1 µM", "result": 104, "unit": "%"}, {"measurement": "viability, T/C", "setting": "second compound 0.03 µM, first compound 3.16 µM", "result": 102, "unit": "%"}, {"measurement": "viability, T/C", "setting": "second compound 0.03 µM, first compound 10 µM", "result": 106, "unit": "%"}, {"measurement": "viability, T/C", "setting": "second compound 0.0949 µM, first compound 0.0316 µM", "result": 108, "unit": "%"}, {"measurement": "viability, T/C", "setting": "second compound 0.0949 µM, first compound 0.1 µM", "result": 107, "unit": "%"}, {"measurement": "viability, T/C", "setting": "second compound 0.0949 µM, first compound 0.316 µM", "result": 112, "unit": "%"}, {"measurement": "viability, T/C", "setting": "second compound 0.0949 µM, first compound 1 µM", "result": 109, "unit": "%"}, {"measurement": "viability, T/C", "setting": "second compound 0.0949 µM, first compound 3.16 µM", "result": 116, "unit": "%"}, {"measurement": "viability, T/C", "setting": "second compound 0.0949 µM, first compound 10 µM", "result": 120, "unit": "%"}, {"measurement": "viability, T/C", "setting": "second compound 0.3 µM, first compound 0.0316 µM", "result": 101, "unit": "%"}, {"measurement": "viability, T/C", "setting": "second compound 0.3 µM, first compound 0.1 µM", "result": 103, "unit": "%"}, {"measurement": "viability, T/C", "setting": "second compound 0.3 µM, first compound 0.316 µM", "result": 110, "unit": "%"}, {"measurement": "viability, T/C", "setting": "second compound 0.3 µM, first compound 1 µM", "result": 118, "unit": "%"}, {"measurement": "viability, T/C", "setting": "second compound 0.3 µM, first compound 3.16 µM", "result": 121, "unit": "%"}, {"measurement": "viability, T/C", "setting": "second compound 0.3 µM, first compound 10 µM", "result": 108, "unit": "%"}, {"measurement": "viability, T/C", "setting": "second compound 0.949 µM, first compound 0.0316 µM", "result": 113, "unit": "%"}, {"measurement": "viability, T/C", "setting": "second compound 0.949 µM, first compound 0.1 µM", "result": 113, "unit": "%"}, {"measurement": "viability, T/C", "setting": "second compound 0.949 µM, first compound 0.316 µM", "result": 120, "unit": "%"}, {"measurement": "viability, T/C", "setting": "second compound 0.949 µM, first compound 1 µM", "result": 118, "unit": "%"}, {"measurement": "viability, T/C", "setting": "second compound 0.949 µM, first compound 3.16 µM", "result": 129, "unit": "%"}, {"measurement": "viability, T/C", "setting": "second compound 0.949 µM, first compound 10 µM", "result": 121, "unit": "%"}, {"measurement": "viability, T/C", "setting": "second compound 3 µM, first compound 0.0316 µM", "result": 96, "unit": "%"}, {"measurement": "viability, T/C", "setting": "second compound 3 µM, first compound 0.1 µM", "result": 107, "unit": "%"}, {"measurement": "viability, T/C", "setting": "second compound 3 µM, first compound 0.316 µM", "result": 109, "unit": "%"}, {"measurement": "viability, T/C", "setting": "second compound 3 µM, first compound 1 µM", "result": 114, "unit": "%"}, {"measurement": "viability, T/C", "setting": "second compound 3 µM, first compound 3.16 µM", "result": 115, "unit": "%"}, {"measurement": "viability, T/C", "setting": "second compound 3 µM, first compound 10 µM", "result": 112, "unit": "%"}]}, {"smiles": "C=C(F)C(=O)N1CCN(c2nc(OCC3CCCN3C)nc3c2CCN(c2cccc4cccc(Cl)c24)C3)CC1CC#N", "note": "(configuration not stated) + Cc1c(S(C)(=O)=O)c(-c2cc(F)cc(N3CCN(c4ccc(NS(=O)(=O)c5ccc(NC(CCN6CCC(C(=O)OCCCP(=O)(O)O)CC6)CSc6ccccc6)c(S(=O)(=O)C(F)(F)F)c5)cc4)CC3)c2)c(-c2ccc(Cl)cc2)n1C(C)C", "values": [{"measurement": "IC50", "setting": "curve of first compound, second compound 0.1 µM", "result": 2290, "unit": "nM"}, {"measurement": "IC50", "setting": "curve of first compound, second compound 0.316 µM", "result": 2110, "unit": "nM"}, {"measurement": "IC50", "setting": "curve of first compound, second compound 1 µM", "result": 1850, "unit": "nM"}, {"measurement": "IC50", "setting": "curve of first compound, second compound 3.16 µM", "result": 1740, "unit": "nM"}, {"measurement": "IC50", "setting": "curve of first compound, second compound 10 µM", "result": 1710, "unit": "nM"}, {"measurement": "viability, T/C", "setting": "second compound 0.1 µM, first compound 0.0316 µM", "result": 92.2, "unit": "%"}, {"measurement": "viability, T/C", "setting": "second compound 0.1 µM, first compound 0.1 µM", "result": 97.2, "unit": "%"}, {"measurement": "viability, T/C", "setting": "second compound 0.1 µM, first compound 0.316 µM", "result": 97.2, "unit": "%"}, {"measurement": "viability, T/C", "setting": "second compound 0.1 µM, first compound 1 µM", "result": 101, "unit": "%"}, {"measurement": "viability, T/C", "setting": "second compound 0.1 µM, first compound 3.16 µM", "result": 31.6, "unit": "%"}, {"measurement": "viability, T/C", "setting": "second compound 0.1 µM, first compound 10 µM", "result": 0.12, "unit": "%"}, {"measurement": "viability, T/C", "setting": "second compound 0.316 µM, first compound 0.0316 µM", "result": 106, "unit": "%"}, {"measurement": "viability, T/C", "setting": "second compound 0.316 µM, first compound 0.1 µM", "result": 108, "unit": "%"}, {"measurement": "viability, T/C", "setting": "second compound 0.316 µM, first compound 0.316 µM", "result": 106, "unit": "%"}, {"measurement": "viability, T/C", "setting": "second compound 0.316 µM, first compound 1 µM", "result": 109, "unit": "%"}, {"measurement": "viability, T/C", "setting": "second compound 0.316 µM, first compound 3.16 µM", "result": 18.6, "unit": "%"}, {"measurement": "viability, T/C", "setting": "second compound 0.316 µM, first compound 10 µM", "result": 0.09, "unit": "%"}, {"measurement": "viability, T/C", "setting": "second compound 1 µM, first compound 0.0316 µM", "result": 103, "unit": "%"}, {"measurement": "viability, T/C", "setting": "second compound 1 µM, first compound 0.1 µM", "result": 100, "unit": "%"}, {"measurement": "viability, T/C", "setting": "second compound 1 µM, first compound 0.316 µM", "result": 97.5, "unit": "%"}, {"measurement": "viability, T/C", "setting": "second compound 1 µM, first compound 1 µM", "result": 97.4, "unit": "%"}, {"measurement": "viability, T/C", "setting": "second compound 1 µM, first compound 3.16 µM", "result": 8.81, "unit": "%"}, {"measurement": "viability, T/C", "setting": "second compound 1 µM, first compound 10 µM", "result": 0.09, "unit": "%"}, {"measurement": "viability, T/C", "setting": "second compound 3.16 µM, first compound 0.0316 µM", "result": 95.8, "unit": "%"}, {"measurement": "viability, T/C", "setting": "second compound 3.16 µM, first compound 0.1 µM", "result": 93, "unit": "%"}, {"measurement": "viability, T/C", "setting": "second compound 3.16 µM, first compound 0.316 µM", "result": 94.9, "unit": "%"}, {"measurement": "viability, T/C", "setting": "second compound 3.16 µM, first compound 1 µM", "result": 91.8, "unit": "%"}, {"measurement": "viability, T/C", "setting": "second compound 3.16 µM, first compound 3.16 µM", "result": 4.45, "unit": "%"}, {"measurement": "viability, T/C", "setting": "second compound 3.16 µM, first compound 10 µM", "result": 0.09, "unit": "%"}, {"measurement": "viability, T/C", "setting": "second compound 10 µM, first compound 0.0316 µM", "result": 104, "unit": "%"}, {"measurement": "viability, T/C", "setting": "second compound 10 µM, first compound 0.1 µM", "result": 100, "unit": "%"}, {"measurement": "viability, T/C", "setting": "second compound 10 µM, first compound 0.316 µM", "result": 99.7, "unit": "%"}, {"measurement": "viability, T/C", "setting": "second compound 10 µM, first compound 1 µM", "result": 91.3, "unit": "%"}, {"measurement": "viability, T/C", "setting": "second compound 10 µM, first compound 3.16 µM", "result": 2.9, "unit": "%"}, {"measurement": "viability, T/C", "setting": "second compound 10 µM, first compound 10 µM", "result": 0.14, "unit": "%"}]}, {"smiles": "NC(=O)C(=Cn1cnc(-c2cc(C(F)(F)F)cc(C(F)(F)F)c2)n1)c1cncnc1", "values": [{"measurement": "viability, T/C", "setting": "compound 0.000949 µM", "result": "95.7% and 87.8% and 73.5%"}, {"measurement": "viability, T/C", "setting": "compound 0.003 µM", "result": "92.4% and 95.1% and 81.3%"}, {"measurement": "viability, T/C", "setting": "compound 0.00949 µM", "result": "84.7% and 87.1% and 84.5%"}, {"measurement": "viability, T/C", "setting": "compound 0.03 µM", "result": "57.8% and 56.5% and 60.4%"}, {"measurement": "viability, T/C", "setting": "compound 0.0949 µM", "result": "50.5% and 47% and 48.1%"}, {"measurement": "viability, T/C", "setting": "compound 0.3 µM", "result": "14.4% and 21.2% and 21.8%"}, {"measurement": "IC50", "setting": "curve of compound", "result": "72.4 nM and 61.5 nM and 74.9 nM"}]}]}
